Results: paper PMC9959244, “Revisiting the Solubility–Permeability Relationship with Hydrophobic Drug Umifenovir in Pluronic Solutions: Impact of pH and Co-Solvent” (Pharmaceutics, 2023)
≈ marks a conversion by molar mass, not a printed value. Read-outs that look alike come from different tables or passages of the source.

Assay: Phase solubility, shake-flask method with UV spectrophotometry
Assay type: physicochemical
Settings: for solubility at 3 days: aqueous buffer (shake-flask)
Method: The solubility of UMF was measured in pure buffers pH 2.0 and pH 7.4, with the additions of 1.5 w/v%, 4.0 w/v%, 5.5 w/v%, 7.0 w/v% of F-127, and in all these solutions in the presence of 10% and 20% ethanol at 310.15 ± 0.1 K by the standard shake-flask method. The concentrations of F-127 were chosen purposely to avoid the formation of a gel (at approximately 20% w/w in water at 310.15 K). Since the aim of the study was to evaluate the possibility of preparation of pharmaceutical products based on UMF, the experimental temperature was selected to be as very close to the normal temperature of a healthy human. […] The experimental results are presented as an average of at least three replicated experiments.

Q: Which “Solubility increase by ethanol vs buffer pH 7.4” value (10% EtOH) does the source give for `CCOC(=O)c1c(CSc2ccccc2)n(C)c2cc(Br)c(O)c(CN(C)C)c12` [UMF, 6-bromo-4-dimethylaminomethyl-5-hydroxy-1-methyl-2-phenylthiomethyl indole-3-carboxylic acid ethyl ester] here?
A: 1.13 fold

Q: And the “Solubility increase by ethanol vs buffer pH 7.4” value (20% EtOH)?
A: 1.8 fold

Q: What about the “Greater solubility in acidic medium (pH 2.0) as compared to alkaline one (pH 7.4)” value (310.15 K) of the same compound?
A: 44.4 fold

Q: What about the solubility at 3 days (37 °C, pH 2, aqueous buffer, thermodynamic from solid, Solubility SUMF·103, buffer pH 2.0, 0 w/v% F-127, 310.15 K, value is S×10^3, heading: Solubility SUMF·103) of the same compound?
A: 710 ± 20 µM (≈ 339 µg/mL)

Q: And the solubility at 3 days (37 °C, pH 2, aqueous buffer, thermodynamic from solid, pH 2.0, 310.15 K, read-out: Solubility in pure buffer)?
A: 711 µM (≈ 339 µg/mL)

Q: And the solubility at 3 days (37 °C, pH 2, aqueous with cosolvent or surfactant or cyclodextrin, thermodynamic from solid, Solubility SUMF·103, buffer pH 2.0, 1.5 w/v% F-127, 310.15 K, value is S×10^3, heading: Solubility SUMF·103)?
A: 2050 ± 40 µM (≈ 979 µg/mL)

Q: And the solubility at 3 days (37 °C, pH 2, aqueous with cosolvent or surfactant or cyclodextrin, thermodynamic from solid, Solubility SUMF·103, buffer pH 2.0, 4.0 w/v% F-127, 310.15 K, value is S×10^3, heading: Solubility SUMF·103)?
A: 3990 ± 80 µM (≈ 1900 µg/mL)

Q: And the solubility at 3 days (37 °C, pH 2, aqueous with cosolvent or surfactant or cyclodextrin, thermodynamic from solid, Solubility SUMF·103, buffer pH 2.0, 5.5 w/v% F-127, 310.15 K, value is S×10^3, heading: Solubility SUMF·103)?
A: 5610 ± 40 µM (≈ 2680 µg/mL)

Q: And the solubility at 3 days (37 °C, pH 2, aqueous with cosolvent or surfactant or cyclodextrin, thermodynamic from solid, Solubility SUMF·103, buffer pH 2.0, 7.0 w/v% F-127, 310.15 K, value is S×10^3, heading: Solubility SUMF·103)?
A: 6340 ± 30 µM (≈ 3030 µg/mL)

Q: And the solubility at 3 days (37 °C, pH 7.4, aqueous buffer, thermodynamic from solid, buffer pH 7.4, 0 w/v% F-127, 310.15 K, value is S×10^4, read-out: Solubility SUMF·104)?
A: 16 ± 0.1 µM (≈ 7.64 µg/mL)

Q: What about the solubility at 3 days (37 °C, pH 7.4, aqueous with cosolvent or surfactant or cyclodextrin, thermodynamic from solid, 7.0% F-127 + 20% EtOH, buffer pH 7.4, 310.15 K, read-out: Maximum solubility value) of the same compound?
A: 1180 µM

Q: And the solubility at 3 days (37 °C, pH 7.4, aqueous with cosolvent or surfactant or cyclodextrin, thermodynamic from solid, buffer pH 7.4 +10% EtOH, 0 w/v% F-127, 310.15 K, value is S×10^4, read-out: Solubility SUMF·104)?
A: 18 ± 0.1 µM (≈ 8.59 µg/mL)

Q: What about the solubility at 3 days (37 °C, pH 7.4, aqueous with cosolvent or surfactant or cyclodextrin, thermodynamic from solid, buffer pH 7.4 +10% EtOH, 1.5 w/v% F-127, 310.15 K, value is S×10^4, read-out: Solubility SUMF·104) of the same compound?
A: 194 ± 1 µM (≈ 92.6 µg/mL)

Q: And the solubility at 3 days (37 °C, pH 7.4, aqueous with cosolvent or surfactant or cyclodextrin, thermodynamic from solid, buffer pH 7.4 +10% EtOH, 4.0 w/v% F-127, 310.15 K, value is S×10^4, read-out: Solubility SUMF·104)?
A: 477 ± 3 µM (≈ 228 µg/mL)

Q: What about the solubility at 3 days (37 °C, pH 7.4, aqueous with cosolvent or surfactant or cyclodextrin, thermodynamic from solid, buffer pH 7.4 +10% EtOH, 5.5 w/v% F-127, 310.15 K, value is S×10^4, read-out: Solubility SUMF·104) of the same compound?
A: 689 ± 7 µM (≈ 329 µg/mL)

Q: And the solubility at 3 days (37 °C, pH 7.4, aqueous with cosolvent or surfactant or cyclodextrin, thermodynamic from solid, buffer pH 7.4 +10% EtOH, 7.0 w/v% F-127, 310.15 K, value is S×10^4, read-out: Solubility SUMF·104)?
A: 806 ± 7 µM (≈ 385 µg/mL)

Q: What about the solubility at 3 days (37 °C, pH 7.4, aqueous with cosolvent or surfactant or cyclodextrin, thermodynamic from solid, buffer pH 7.4 +20% EtOH, 0 w/v% F-127, 310.15 K, value is S×10^4, read-out: Solubility SUMF·104) of the same compound?
A: 30 ± 1 µM (≈ 14.3 µg/mL)

Q: What about the solubility at 3 days (37 °C, pH 7.4, aqueous with cosolvent or surfactant or cyclodextrin, thermodynamic from solid, buffer pH 7.4 +20% EtOH, 1.5 w/v% F-127, 310.15 K, value is S×10^4, read-out: Solubility SUMF·104) of the same compound?
A: 276 ± 3 µM (≈ 132 µg/mL)

Q: And the solubility at 3 days (37 °C, pH 7.4, aqueous with cosolvent or surfactant or cyclodextrin, thermodynamic from solid, buffer pH 7.4 +20% EtOH, 4.0 w/v% F-127, 310.15 K, value is S×10^4, read-out: Solubility SUMF·104)?
A: 700 ± 5 µM (≈ 334 µg/mL)

Q: What about the solubility at 3 days (37 °C, pH 7.4, aqueous with cosolvent or surfactant or cyclodextrin, thermodynamic from solid, buffer pH 7.4 +20% EtOH, 5.5 w/v% F-127, 310.15 K, value is S×10^4, read-out: Solubility SUMF·104) of the same compound?
A: 983 ± 11 µM (≈ 469 µg/mL)

Q: And the solubility at 3 days (37 °C, pH 7.4, aqueous with cosolvent or surfactant or cyclodextrin, thermodynamic from solid, buffer pH 7.4, 1.5 w/v% F-127, 310.15 K, value is S×10^4, read-out: Solubility SUMF·104)?
A: 174 ± 3 µM (≈ 83.1 µg/mL)

Q: And the solubility at 3 days (37 °C, pH 7.4, aqueous with cosolvent or surfactant or cyclodextrin, thermodynamic from solid, buffer pH 7.4, 4.0 w/v% F-127, 310.15 K, value is S×10^4, read-out: Solubility SUMF·104)?
A: 393 ± 3 µM (≈ 188 µg/mL)

Q: And the solubility at 3 days (37 °C, pH 7.4, aqueous with cosolvent or surfactant or cyclodextrin, thermodynamic from solid, buffer pH 7.4, 5.5 w/v% F-127, 310.15 K, value is S×10^4, read-out: Solubility SUMF·104)?
A: 586 ± 2 µM (≈ 280 µg/mL)

Q: What about the solubility at 3 days (37 °C, pH 7.4, aqueous with cosolvent or surfactant or cyclodextrin, thermodynamic from solid, buffer pH 7.4, 7.0 w/v% F-127, 310.15 K, value is S×10^4, read-out: Solubility SUMF·104) of the same compound?
A: 696 ± 4 µM (≈ 332 µg/mL)

Q: And the solubility at 3 days (pH 7.4, pH 7.4, 310.15 K, read-out: Solubility in pure buffer)?
A: 15.8 µM (≈ 7.54 µg/mL)

Q: And the “Solubility enhancement by 7.0% F-127” value (buffer pH 2.0, vs without F-127)?
A: 8.9 fold

Q: What about the “Solubility enhancement by 7.0% F-127” value (buffer pH 7.4 + 10% EtOH, vs without F-127) of the same compound?
A: 44.8 fold

Q: And the “Solubility enhancement by 7.0% F-127” value (buffer pH 7.4 + 20% EtOH, vs without F-127)?
A: 39.3 fold

Q: What about the “Solubility enhancement by 7.0% F-127” value (buffer pH 7.4, vs without F-127) of the same compound?
A: 43.5 fold
